Where “and” joins values, the source holds several entries; their conditions need not be identical. Identical values can stand only once. Like-named read-outs stand apart in the source and are kept apart here.
What was measured:
in vivo [1] = conditions: guinea pig; for Cmax / Tmax / AUC(0-t) / half-life: male, Hartley albino
Experimental: (§1) The column used for chromatographic separation was a Waters Xbridge C18, 2.1 × 50 mm 2.5 µm at 30 °C. Mobile phase A: 10:40:50, 1.0% ammonium hydroxide solution in water, adjusted to pH 10.5 with formic acid: water: ACN. Mobile phase B: 10:90, 1.0% ammonium hydroxide solution in water, adjusted to pH 10.5 with formic acid: ACN. Flow rate: 250 µL/min, injection volume: 10 µL, run time: 10 min. Gradient, 100% A hold for 1 min, 0% B to 100% B over 4 min, hold 100% B for 4.5 min, 0% B at 9.51 min and equilibrate for 0.5 min.
(§2) The LTQ-XL ion trap mass spectrometer was coupled to the Accela LC system via an electrospray ionization (ESI) probe. The capillary temperature was maintained at 350 °C, sheath gas flow rate 50 arbitrary units, auxiliary gas flow rate 5 arbitrary units, sweep gas flow rate 0 arbitrary units, source voltage 3.20 kV, source current 100 µA, capillary voltage 43.00 V and tube lens 100 V. Compounds were detected in positive ion mode using selected ion monitoring (SIM). Hydroxybupropion was detected at (M+H)^+ = 256.1099, RT = 1.0 min, Rac-erythro-hydrobupropion (M+H)^+ = 242.1306, RT = 2.3 min, Rac-threo-hydrobupropion (M+H)^+ = 242.1306, RT 2.8 min, bupropion (M+H)^+ = 240.1150, RT = 2.0 min, N-methylbupropion (M+H)^+ = 254.1306, RT = 4.9 min, Rac-N-methyl-erythro-hydrobupropion (M+H)^+ = 256.1463, RT = 4.1 min and Rac-N-methyl-threo-hydrobupropion (M+H)^+ = 256.1463, RT = 4.6 min. The optimum detector conditions were found by tuning the instrument to be most sensitive for bupropion’s most abundant ion at 240 (m/z).
After acclimatization, male Hartley albino guinea-pigs, weighing 280–320 g were deprived of food for 16 h with free access to water (food withdrawal at 04:00 PM the day before). On the day of the experiment five guinea pigs per group were weighed then injected through the abdominal wall or fed by oral gavage with bupropion given at 40 mg/kg intraperitoneum. A second group of five guinea pigs were weighed then injected through the abdominal wall or fed by oral gavage with N-methyl bupropion given at 42 mg/Kg intraperitoneum.
Guinea pigs were placed under isoflurane anesthesia and approximately 100 µL of blood was collected using hematocrit capillaries or by cardiac puncture (terminal) into dry heparin/Li containing tubes before administration and then at five time points post-administration (0, 20, 40, 60, 120 and 180 min) for intraperitoneal study and seven time-points post administration (0, 20, 40, 60, 120, 180, 240 and 360 min) for oral study. After blood was collected, the tubes were inverted several times and placed on ice. The samples were centrifuged within 30 min maximum after sampling at 2205 g at 4 °C for 10 min. Plasma was transferred to polypropylene tubes and frozen with minimal delay at approximately −70 °C.
(§3) Guinea pig plasma was defrosted and centrifuged. Then, plasma (50 µL) was added to a 1.5 mL microcentrifuge tube. ACN (200 µL) was added and the mixture was vortex mixed. The resulting solution was centrifuged at 8000 g for 10 min. Supernatant (100 µL) was added to HCl (100 µL, 0.001 M). The solution was vortex mixed and added to a 100 µL micro-insert for LC-MS analysis.
Pharmacokinetic calculations were determined on Graphpad Prism software. Michaelis-Menten parameters were determined by non-linear regression analysis. The pharmacokinetic data was interpreted using a one-compartment model where the amount of drug present in the body at any given time t [A(t)] is described in Equation (1).
Drug concentration: A(t) = Cp(t)V(1) where Cp(t) and V are the drug concentration in the plasma and the apparent volume of distribution respectively. At least five sample time points were collected including at least one time point before tmax and three time points during the terminal phase for half-life estimation.

in vivo [2] = conditions: Hartley, guinea pig, ip
Experimental: as §1, §2
An additional group of guinea-pigs were used for brain collection at a single time point (20 min). The day of the experiment four guinea pigs per group were weighed then injected through the abdominal wall with bupropion given at 40 mg/kg IP and N-methylbupropion given at 42 mg/Kg IP. At time 20 min post-injection, the animals were decapitated and the brain extracted and rinsed in cold physiological saline. The whole brain was fast frozen on dry ice and placed into pre-labeled vials and stored at approximately −70 °C (deep frozen).>
as §3
Guinea pig brain was defrosted. The whole brain was weighed into a beaker and 0.01 M HCl (20 mL) was added. The mixture was homogenized for 3 min on level 6 and allowed to settle for 10 min. An aliquot of the resulting suspension was centrifuged at 10,000 g for 10 min. Supernatant (250 µL) was added to ACN 750 µL. The mixture was centrifuged at 10,000 g for 10 min. 200 µL of the supernatant was added to 800 µL water. The clear solution was vortex mixed and analyzed by LC-MS.

in vivo [3] = format: in vivo; conditions: guinea pig; for concentration at 20 min / Kp at 20 min: Hartley, in vivo
Experimental: Guinea pig plasma was defrosted and centrifuged.
Guinea pig brain was defrosted. […] Supernatant (250 µL) was added to ACN 750 µL.
Brain levels were determined on a separate group.

[4] = pH dependence, cited from earlier work
[5] = N-demethylation of N-methylbupropion to bupropion, substrate saturation study; format: in vitro ADME; conditions: 0.1 mg/mL guinea pig S9 liver fraction, 50–1000 μM, 20 min, 37 °C, n = 3
Experimental: Guinea pig S9 liver fraction, NADPH regenerating solutions A and B were thawed rapidly to 37 °C, then kept on wet ice until ready for use. A number of different concentration substrate solutions were prepared were the maximum concentration of DMSO was 1%, and the concentration of guinea pig S9 liver fraction, NADP regenerating system solution B and phosphate buffer was fixed. After incubation for 5 min, NADP regenerating system solution A was added and the metabolism was initiated. Final volume was 100 μL. The tube was inverted twice and vortex mixed. The final concentrations in this solution was 50–1000 μM prodrug, 0.1 mg/mL guinea-pig S9 liver fraction, 1.3 mM NADP^+, 0.4 U/mL glucose-6-phosphate dehydrogenase and 1.0% DMSO. This solution was incubated for 20 min at 37 °C. The reaction was quenched by addition of 100 μL of ACN. […] The supernatant was analysed by LC-MS analysis.
Pharmacokinetic calculations were determined on Graphpad Prism software.
In selecting a guinea pig animal model for an in vivo study, it was prudent to first verify if an in vitro guinea pig model would carry out the same metabolic transformations. […] N-methylbupropion and bupropion concentrations were determined by LC-MS. […] Other unknown minor metabolites of N-methylbupropion were also detected but were not quantified at this stage. These were determined during the in vivo stage, discussed below.

[6] = tested on: dopamine active transport (DAT); design: method as in preceding paper (paper 1 of this series); conditions: in vitro; ref preceding paper (paper 1 of this series); cited from earlier work
[7] = tested on: norepinephrine transport (NET); design: method as in preceding paper (paper 1 of this series); conditions: in vitro; ref preceding paper (paper 1 of this series); cited from earlier work
[8] = ip, 42 mg/kg, Mean Cmax ± SD, plasma analyte after N-Methylbupropion dosed at 42 mg/Kg IP, n = 5
[9] = ip, 42 mg/kg, tmax, plasma analyte after N-Methylbupropion dosed at 42 mg/Kg IP, n = 5
[10] = 20 min post dose of 42 mg/Kg N-methyl bupropion via oral gavage, read-out: Brain levels
[11] = 20 min post dose of 42 mg/Kg N-methyl bupropion via oral gavage, read-out: Brain/plasma ratio
[12] = 20 min post dose of 42 mg/Kg N-methyl bupropion via oral gavage, read-out: Plasma levels
[13] = ip, 40 mg/kg, Cmax, plasma analyte after dosing bupropion 40 mg/Kg IP
[14] = ip, 40 mg/kg, tmax, plasma analyte after dosing bupropion 40 mg/Kg IP
[15] = 20 min post dose of 40 mg/Kg bupropion via oral gavage, read-out: Brain levels
[16] = 20 min post dose of 40 mg/Kg bupropion via oral gavage, read-out: Brain/plasma ratio
[17] = 20 min post dose of 40 mg/Kg bupropion via oral gavage, read-out: Plasma levels

SMILES: C[C@H]([C@H](O)c1cccc(Cl)c1)N(C)C(C)(C)C (racemic) [N-Me THB, Rac-N-methyl-threo-hydrobupropion]
- Cmax (in vivo [1]; [8]): 80 ± 20 ng/mL
- Tmax (in vivo [1]; [9]): 19.8 min
- Kp at 20 min (in vivo [2]; 42 mg/kg): 12.6
- concentration at 20 min (in vivo [3]; [10]): 570 ng/g
- Kp at 20 min (in vivo [3]; [11]): 14.2
- concentration at 20 min (in vivo [3]; [12]): 40 ng/mL

SMILES: C[C@H]1NC(C)(C)CO[C@]1(O)c1cccc(Cl)c1 (relative stereo) [BupOH, hydroxybupropion]
- Tmax (in vivo [1]; in vivo): 60 min
- AUC(0-t) (in vivo [1]; ip, 40 mg/kg): 2330 ng·h/mL
- Tmax (in vivo [1]; ip, 40 mg/kg): 39.6 min
- half-life (in vivo [1]; ip, 40 mg/kg): 408 min
- Cmax (in vivo [1]; ip, 40 mg/kg, Mean Cmax ± SD): 950 ± 170 ng/mL
- Cmax (in vivo [1]; [8]): 720 ± 140 ng/mL
- Tmax (in vivo [1]; [9]): 60 min
- Kp at 20 min (in vivo [2]; 40 mg/kg): 6.3
- Kp at 20 min (in vivo [2]; 42 mg/kg): 7.61
- Kp at 20 min (in vivo [3]; po, 40 mg/kg): 0.5
- concentration at 20 min (in vivo [3]; po, 40 mg/kg): 370 ng/g and 730 ng/mL
- Kp at 20 min (in vivo [3]; po, 42 mg/kg): 0.4
- concentration at 20 min (in vivo [3]; po, 42 mg/kg): 220 ng/g and 550 ng/mL

SMILES: CC(NC(C)(C)C)C(=O)c1cccc(Cl)c1 (stereo not drawn) [Bup, Bupropion]
- Cmax (in vivo [1]; [13]): 869 ± 190 ng/mL
- Cmax (in vivo [1]; ip, 40 mg/kg, Mean Cmax ± SD, plasma analyte after Bupropion dosed at 40 mg/Kg IP, n = 5): 870 ± 190 ng/mL
- Tmax (in vivo [1]; ip, 40 mg/kg, tmax, plasma analyte after Bupropion dosed at 40 mg/Kg IP, n = 5): 19.8 min
- Tmax (in vivo [1]; [14]): 20 min
- Cmax (in vivo [1]; [8]): 380 ± 90 ng/mL
- Tmax (in vivo [1]; [9]): 19.8 min
- Kp at 20 min (in vivo [2]; 40 mg/kg): 11.2
- Kp at 20 min (in vivo [2]; 42 mg/kg): 17.1
- concentration at 20 min (in vivo [3]; [15]): 430 ng/g
- Kp at 20 min (in vivo [3]; [16]): 4.78
- concentration at 20 min (in vivo [3]; [17]): 90 ng/mL
- concentration at 20 min (in vivo [3]; [10]): 460 ng/g
- Kp at 20 min (in vivo [3]; [11]): 9.2
- concentration at 20 min (in vivo [3]; [12]): 50 ng/mL
- stability of freebase ([4]; aqueous): suffers from hydrolysis and oxidation at pH > 5
- sample stability in plasma ([4]; plasma samples, ref 14,15 (supplement)): stable at low pH

SMILES: CC(C(=O)c1cccc(Cl)c1)N(C)C(C)(C)C (stereo not drawn) [N-Me Bup, N-methylbupropion]
- Vmax [5]: 419.2 ± 13.65 pmol/min/mg S9
- Cmax (in vivo [1]; [8]): 180 ± 80 ng/mL
- Tmax (in vivo [1]; [9]): 19.8 min
- t½ (in vivo [1]; plasma analyte after N-Methylbupropion dosed at 42 mg/Kg via oral gavage, n = 5): <LOQ
- Kp at 20 min (in vivo [2]; 42 mg/kg): 20.2
- Brain/plasma ratio (in vivo [3]; 20 min post dose of 42 mg/Kg N-methyl bupropion via oral gavage): <LOQ
- Brain levels (in vivo [3]; 20 min post dose of 42 mg/Kg N-methyl bupropion via oral gavage, listed as N-MeBup, 42 mg/kg): <LOQ
- Brain levels (in vivo [3]; 20 min post dose of 42 mg/Kg N-methyl bupropion via oral gavage, listed as N-methylbupropion, 42 mg/kg): below the limit of quantitation
- concentration at 20 min (in vivo [3]; [12]): 20 ng/mL
- activity at DAT compared to bupropion [6]: lower activity
- activity at NET compared to bupropion [7]: lower activity

SMILES: C[C@@H](NC(C)(C)C)[C@H](O)c1cccc(Cl)c1 [THB, threo-hydrobupropion]
- Tmax (in vivo [1]; in vivo, 42 mg/Kg): 60 min
- AUC(0-t) (in vivo [1]; ip, 40 mg/kg): 2860 ng·h/mL
- half-life (in vivo [1]; ip, 40 mg/kg): 198 min
- Cmax (in vivo [1]; [13]): 1230 ± 307 ng/mL
- Cmax (in vivo [1]; ip, 40 mg/kg, Mean Cmax ± SD): 1220 ± 310 ng/mL
- Tmax (in vivo [1]; ip, 40 mg/kg, tmax): 19.8 min
- Tmax (in vivo [1]; [14]): 20 min
- Cmax (in vivo [1]; [8]): 970 ± 280 ng/mL
- Tmax (in vivo [1]; [9]): 60 min
- Kp at 20 min (in vivo [2]; 40 mg/kg): 6.54
- Kp at 20 min (in vivo [2]; 42 mg/kg): 12.1
- concentration at 20 min (in vivo [3]; [15]): 970 ng/g
- Kp at 20 min (in vivo [3]; [16]): 1.17
- concentration at 20 min (in vivo [3]; [17]): 830 ng/mL
- concentration at 20 min (in vivo [3]; [10]): 620 ng/g
- Kp at 20 min (in vivo [3]; [11]): 1.15
- concentration at 20 min (in vivo [3]; [12]): 540 ng/mL

— publication PMC4078515 (Pharmaceuticals, 2014)
